Source: patent publication US6630498B2 (SmithKline Beecham Corporation, priority 1997, dated 2003)

Experiments:
[1] = Mucosal to serosal permeability through rabbit colon in vitro; format: in vitro ADME
[2] = cited from earlier work
[3] = Flow through dissolution of granules with pH gradient; format: physicochemical; conditions: for in vitro dissolution profile (in words): compared to the monomethanesulfonate salt (granules); for Percent of Eprosartan dissolved from the granules: flow through 8 mL/min, 37° C.
Description: A flow through dissolution apparatus at 8 mL/min flow rate, 37° C. and the following pH gradient

SMILES | increase of mucosal to serosal permeability through rabbit colon ([1]; in the presence of L-arginine as a solution, compared to the monomethanesulfonate alone) [%] | bioavailability (in words) ([2]; human) | mean absolute bioavailability ([2]; human) | time to maximum concentration ([2]; human, fed state) [h] | safety and tolerability in human clinical studies ([2]; up to doses of 800 mg per day) | in vitro permeability through rabbit colon (in words) ([1]; compared to the monomethanesulfonate salt) | in vitro dissolution profile (in words) [3] | in vitro dissolution profile (in words) ([3]; listed as arginine charge-neutralization-complex) | Percent of Eprosartan dissolved from the granules ([3]; time 0 min, pH gradient) [%] | Percent of Eprosartan dissolved from the granules ([3]; time 45 min (pH 1.2 SGF step)) [%] | Percent of Eprosartan dissolved from the granules ([3]; time 90 min (pH 3.0 step)) [%] | Percent of Eprosartan dissolved from the granules ([3]; time 120 min (pH 4.0 step)) [%] | Percent of Eprosartan dissolved from the granules ([3]; time 150 min (pH 5.0 step)) [%] | Percent of Eprosartan dissolved from the granules ([3]; time 180 min (pH 6.0 step)) [%] | Percent of Eprosartan dissolved from the granules ([3]; time 225 min (pH 7.5 step)) [%]
CCCCc1ncc(/C=C(\Cc2cccs2)C(=O)O)n1Cc1ccc(C(=O)O)cc1 [(E)-α-[2-n-Butyl-1-[(4-carboxyphenyl)methyl]-1H-imidazol-5-yl]methylene-2-thiophenepropionic acid monomethanesulfonate] | 50 | low and variable bioavailability | approximately 13% | 2.5 to 4 | safe and well tolerated |  |  |  |  |  |  |  |  |  | 
CCCCc1ncc(/C=C(\Cc2cccs2)C(=O)O)n1Cc1ccc(C(=O)O)cc1.N=C(N)NCCC[C@H](N)C(=O)O [Arginyl charge-neutralization-complex, (E)-α-[2-n-butyl-1-[(4-carboxyphenyl)methyl]-1H-imidazol-5-yl]methylene-2-thiophenepropionic acid arginyl charge-neutralization-complex] |  |  |  |  |  | increased in vitro permeability | improved in vitro dissolution profile | better dissolution profile | 0.00 | 32.81 | 35.82 | 36.24 | 37.44 | 46.70 | 100.63
